# Laboratory results taken from paper PMC9380819 (ACS Omega, 2022).
# Entries after “also recorded” stand apart in the source; their conditions may differ.
# Assays:
# [1] = molecular target: SARS-CoV-2 spike RBD (331–528 amino acids) (Severe acute respiratory syndrome coronavirus 2, UniProt P0DTC2); assay: biochemical; assay type: binding
# SARS-CoV-2 [2] = assay type: cell-based
# [3] = molecular target: SARS-CoV-2 spike RBD: hACE2 (Severe acute respiratory syndrome coronavirus 2, UniProt P0DTC2); assay type: biochemical
# [4] = test system: spike protein–ACE2 interaction; conditions: not tested against virally infected cells; cited from earlier work
# [5] = test system: SARS-CoV-2 (isolate USA WA1/2020); assay: microbe, parasite or virus in culture; assay type: cell-based; conditions: Severe acute respiratory syndrome coronavirus 2, Calu-3
# SARS-CoV-2 [6] = conditions: 10 μM, after 48 h; cited from earlier work
# in vitro = conditions: human
# ACE2 = conditions: read-out: IC50 exopeptidase activity; cited from earlier work
# SARS-CoV-2 [7] = conditions: Vero cells; cited from earlier work
# SARS-CoV-2 [8] = conditions: cited from earlier work
# SARS-CoV-2 [9] = conditions: cited from earlier work; remark: listed apart in the source
structure (smiles),measurement,setting,value
"CC(C)NCC(O)COc1ccc(COCCOC(C)C)cc1 (racemic) [bisoprolol, (±)-Bisoprolol hemifumarate]",binding to the RBD spike in MST,[1],did not bind
same,SARS-CoV-2 adsorption to Vero E6 cells,SARS-CoV-2 [2],statistically decreased SARS-CoV-2 adsorption
same,disruption of the interaction between the RBD and ACE2,[3],none of the compounds tested were able to disrupt the interaction
O=c1c(O)c(-c2ccc(O)c(O)c2)oc2cc(O)cc(O)c12 [Quercetin],IC50,[4],7 µM
CCC(CC)COC(=O)[C@H](C)N[P@](=O)(OC[C@H]1O[C@@](C#N)(c2ccc3c(N)ncnn23)[C@H](O)[C@@H]1O)Oc1ccccc1 [Remdesivir],EC50,[5],0.08 µM
CC(C)NCC(O)COc1ccc(CC(N)=O)cc1 (stereo not drawn) [atenolol],inhibition of SARS-CoV-2-induced cytotoxicity of Caco-2 cells,SARS-CoV-2 [6],25.84%
same,SARS-CoV-2 adsorption to Vero E6 cells,SARS-CoV-2 [2],statistically decreased SARS-CoV-2 adsorption
CC(C)(C)NCC(O)COc1cccc2c1CCC(=O)N2 (stereo not drawn) [carteolol],Kd,[1],0.459 ± 0.111 µM
same,disruption of the interaction between the RBD and ACE2,[3],none of the compounds tested were able to disrupt the interaction
COc1ccccc1OCCNCC(O)COc1cccc2[nH]c3ccccc3c12 (stereo not drawn) [carvedilol],inhibition of SARS-CoV-2-induced cytotoxicity of Caco-2 cells,SARS-CoV-2 [6],did not show activity
same,Kd,[1],0.364 ± 0.022 µM
same,SARS-CoV-2 adsorption to Vero E6 cells,SARS-CoV-2 [2],statistically decreased SARS-CoV-2 adsorption; also recorded: highest reduction on SARS-CoV-2 adsorption
same,disruption of the interaction between the RBD and ACE2,[3],none of the compounds tested were able to disrupt the interaction
same,EC50,[5],7.57 µM
same,CC50,in vitro,18.1 µM
Oc1c(I)cc(Cl)c2cccnc12 [cliquinol],IC50,ACE2,5.36 µM
same,EC50,SARS-CoV-2 [7],12.6 µM
CCCCC/C=C\C/C=C\CCCCCCCC(=O)O [linoleic acid],disruption of the interaction between the RBD and ACE2,[3],not able to disrupt the interaction
"CC(C)NCC(O)COc1cccc2[nH]ccc12 (stereo not drawn) [pindolol, Pindolol]",Kd,[1],0.57 ± 0.144 µM
same,disruption of the interaction between the RBD and ACE2,[3],none of the compounds tested were able to disrupt the interaction
COc1ccc2nc3cc(Cl)ccc3c(Nc3cc(CN4CCCC4)c(O)c(CN4CCCC4)c3)c2n1 [pyronaridine],efficacy in a mouse model infected with SARS-CoV-2,SARS-CoV-2 [8],demonstrated efficacy
same,activity in A549-ACE2 cells,SARS-CoV-2 [9],sub-micromolar
CCN(CC)CCCC(C)Nc1c2ccc(Cl)cc2nc2ccc(OC)cc12 (stereo not drawn) [quinacrine],activity in A549-ACE2 cells,SARS-CoV-2 [9],sub-micromolar
CCN(CC)CCOc1ccc2c(c1)C(=O)c1cc(OCCN(CC)CC)ccc1-2 [tilorone],activity in A549-ACE2 cells,SARS-CoV-2 [9],sub-micromolar
